One block for each sequence: values may come before it.
Biological target: T1, MyD88^TIR (Homo sapiens, UniProt Q99836)
T1 construct: MyD88 (residues 148–296); 6xHis; made in house; host or cells: E. coli BL21 (DE3)
Assay: T‐Surf phage library (P8 and P3) selection against MyD88^TIR, four rounds, NGS read counts
Type: binding
Conditions: for P3_MyD88 Rank (after) / P3_MyD88 Rank (before): P3 library; for Population: 4th round of selection against MyD88 TIR, share of NGS reads; for P8_MyD88 Rank (after) / P8_MyD88 Rank (before): P8 library
How it was run: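 Library of 190 946 TIR‐derived peptides on P8 or P3 was panned on immobilized TIR domain coated at 5 µg mL^−1, BSA‐blocked, 1 h binding at RT, PBS/0.5% Tween‐20 washes, HCl elution, TG1 amplification. Fourth‐round pools were PCR‐barcoded, sequenced (100 bp paired‐end, Phred ≥30), and peptides ranked by read counts.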

[1] = selection against MyD88 TIR, rank by count after grouping
[2] = selection against MyD88 TIR, rank by count before grouping
[3] = P8_MyD88: rank by NGS read count after grouping
[4] = P8_MyD88: rank by NGS read count before grouping
[5] = P8_MyD88: rank by count after grouping
[6] = P8_MyD88: rank by count before grouping
[7] = selection against MyD88, rank by count after grouping
[8] = selection against MyD88, rank by count before grouping
[9] = P3_MyD88: rank by count after grouping
[10] = P3_MyD88: rank by count before grouping
[11] = P8_MyD88 pool: P8 T-Surf phage library
[12] = selection against MyD88, rank after grouping
[13] = selection against MyD88, rank before grouping
[14] = 4R selection against MyD88, rank after grouping
[15] = 4R selection against MyD88, rank before grouping

T1 sequence (Q99836 148-296): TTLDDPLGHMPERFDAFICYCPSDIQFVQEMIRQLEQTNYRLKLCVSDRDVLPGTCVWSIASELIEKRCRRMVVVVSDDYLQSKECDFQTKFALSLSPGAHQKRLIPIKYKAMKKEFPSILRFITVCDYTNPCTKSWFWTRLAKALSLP

Sequence: TSHLHRAWRLNELRTY
P3_MyD88 Rank (after) [1]: 284
P3_MyD88 Rank (before) [2]: 3294

Sequence: YYLEPIYLRKQSGDFG
P3_MyD88 Rank (after) [1]: 283
P3_MyD88 Rank (before) [2]: 1475

Sequence: YASSWWALEELLQILHARELF
Rank (after) [3]: 931
Rank (before) [4]: 1850

Sequence: SSYRESLRRLPALSKK
P3_MyD88 Rank (after) [7]: 739
P3_MyD88 Rank (before) [8]: 3266

Sequence: NELVHEWSSKANSVVG
Rank (after) [9]: 452
Rank (before) [10]: 3442

Sequence: ELDFSHFWLFDGQATGEA
Rank (after) [5]: 120
Rank (before) [6]: 174
Population [11]: 0.00809%

Sequence: DPHDPQWFYERLVRLI
P8_MyD88 Rank (after) [12]: 495
P8_MyD88 Rank (before) [13]: 3035

Sequence: DPQDLDWFYERLASGI
Rank (after) [3]: 882
Rank (before) [4]: 2782

Sequence: DPQDLHGIYERLVILF
P8_MyD88 Rank (after) [14]: 666
P8_MyD88 Rank (before) [15]: 2903

Sequence: RSFREGPWRLLELSKK
Rank (after) [9]: 414
Rank (before) [10]: 2694

Sequence: WALRELEAILQSFQLS
Rank (after) [5]: 142
Rank (before) [6]: 154
Population [11]: 0.01%

Sequence: NQWRNALTAAANLV
Population (P3_MyD88 pool: P3 T-Surf phage library): 0.00378%

Sequence: YYLDPSHLRKQTGSLAKAFA
P3_MyD88 Rank (after) [1]: 224
P3_MyD88 Rank (before) [2]: 1463

Sequence: SSFRDDLWRLLELSKK
P3_MyD88 Rank (after) [14]: 582
P3_MyD88 Rank (before) [15]: 3135

Sequence: DPQDLAWFYASQSSQM
P8_MyD88 Rank (after) [12]: 500
P8_MyD88 Rank (before) [13]: 2997

Sequence: WALDELLKFCMRMKP
P8_MyD88 Rank (after) [12]: 520
P8_MyD88 Rank (before) [13]: 1471

Sequence: LVAHELSNKMKSFATI
Rank (after) [9]: 386
Rank (before) [10]: 2276

Sequence: SLRRNLVSNLIEEFIR
P3_MyD88 Rank (after) [14]: 580
P3_MyD88 Rank (before) [15]: 3076

Sequence: WAFASNMAQFWDRLYS
Rank (after) [3]: 878
Rank (before) [4]: 1395

Sequence: YSFTGQLHLYLIHRGV
Rank (after) [9]: 462
Rank (before) [10]: 1433

Sequence: LKVESWHQAREKAGKL
Rank (after) [9]: 400
Rank (before) [10]: 2518

Sequence: YAFTGHLHRIWCSVA
P3_MyD88 Rank (after) [14]: 581
P3_MyD88 Rank (before) [15]: 1523

Sequence: WALDGLLKILHARELF
Rank (after) [5]: 409
Rank (before) [6]: 1413

Sequence: DPQDEDWLYERLGGLF
P8_MyD88 Rank (after) [7]: 712
P8_MyD88 Rank (before) [8]: 2696

Sequence: DLVWDYLLPNLAGPAG
Rank (after) [3]: 967
Rank (before) [4]: 2386

Second part, the sequence after the results:

P3_MyD88 Rank (after) [1]: 206
P3_MyD88 Rank (before) [2]: 1688
Sequence: YTALTNSGVHTFLDND

Rank (after) [5]: 420
Rank (before) [6]: 1088
Sequence: DPQDLDWFYDRLLYSLHVTE

P8_MyD88 Rank (after) [14]: 674
P8_MyD88 Rank (before) [15]: 2170
Sequence: VANILGYHCKGWENFV

P3_MyD88 Rank (after) [1]: 192
P3_MyD88 Rank (before) [2]: 3063
Sequence: SELREVADGSVSPLEM

P3_MyD88 Rank (after) [12]: 505
P3_MyD88 Rank (before) [13]: 2318
Sequence: LVAMKLPRACLKRLK

P8_MyD88 Rank (after) [12]: 564
P8_MyD88 Rank (before) [13]: 2108
Sequence: YIIWFEDIQLIHLLCD

P8_MyD88 Rank (after) [14]: 653
P8_MyD88 Rank (before) [15]: 3860
Sequence: NYTSSSWALDEQWNIF

P3_MyD88 Rank (after) [1]: 228
P3_MyD88 Rank (before) [2]: 2269
Sequence: LVALEISKKMTIFATI

Rank (after) [9]: 143
Rank (before) [10]: 2283
Sequence: LVAHEISNNMKIFATI

Rank (after) [5]: 166
Rank (before) [6]: 185
Population [11]: 0.00694%
Sequence: DSDPGSDLLIKIWAAL

P8_MyD88 Rank (after) [12]: 567
P8_MyD88 Rank (before) [13]: 2675
Sequence: DPQGVDLFYERQVSLL

P3_MyD88 Rank (after) [7]: 712
P3_MyD88 Rank (before) [8]: 2957
Sequence: SENYVTSPCAVDELVP

P8_MyD88 Rank (after) [14]: 583
P8_MyD88 Rank (before) [15]: 3423
Sequence: PQDLAWYYVRLVSLIL

P3_MyD88 Rank (after) [1]: 257
P3_MyD88 Rank (before) [2]: 1636
Sequence: YTALPNSGFHTFRDNN

P8_MyD88 Rank (after) [7]: 687
P8_MyD88 Rank (before) [8]: 1492
Sequence: WALDELLKILHADETM

Rank (after) [3]: 887
Rank (before) [4]: 3809
Sequence: SSRWALDELVQILHARELF

P3_MyD88 Rank (after) [7]: 731
P3_MyD88 Rank (before) [8]: 2715
Sequence: PEKDNGGENAFINTL

P3_MyD88 Rank (after) [12]: 516
P3_MyD88 Rank (before) [13]: 3268
Sequence: SSVRECLWRLLELSKK

From paper PMC11714206, “Massively Parallel Screening of Toll/Interleukin‐1 Receptor (TIR)‐Derived Peptides Reveals Multiple Toll‐Like Receptors (TLRs)‐Targeting Immunomodulatory Peptides” (Advanced Science, 2024)
